Experimental data taken from patent publication US7270824B2, “Citrullinylarginine dipeptide analogs and their dermatological uses as care and treatment agents” (Exsymol S.A.M., priority 2002, dated 2007).
Non-standard residues stand in square brackets, D forms with d. Residues, ends and D or L forms follow the SMILES beside them. Cit = NC(=O)NCCC[C@H](N)C(=O)O

Columns and labels:
cultured fibroblasts = experiment: Test 1: ATP dosage, energetic metabolism of cultured fibroblasts; assay type: cell-based; settings: 1% active ingredient; fibroblasts 10^5 cells/ml, 2% fetal calf serum; control 26.7 +/- 5.2
Method: Test 1: influence of analogs of the citrullinylarginine natural dipeptide on the energetic metabolism of cultured fibroblasts through a triphosphate adenosine (ATP) dosage. Comparison with the purified natural dipeptide.
The fibroblasts cells are cultivated and seeded at a rate of 10^5 cells/ml in the presence of a growth factor-deprived medium (2% fetal calf serum).
On each cell suspension, the ATP quantity is measured by photometry, by establishing the decrease of absorbance at 340 nm according to following specific equations: • ATP+3-phosphoglycérate---->ADP+1,3-diphosphoglycérate • 1,3-diphosphoglycérate+NADH---->glycéraldéhyde-3-P+NAD+P

[1] = tested on: human fibroblast cell line; experiment: Test 2: cell proliferation (cytostimulation), neutral red colorimetric test; assay type: cell-based; settings: human fibroblasts, 2% fetal calf serum, OD 540 nm
Method: Test 2: evidence of the cytostimulating properties of the citrullinylarginine natural dipeptide analogs.
The test was performed on a human fibroblast cell line maintained in a culture medium filed with 2% fetal calf serum.
The assessment of the cell proliferation is carried out through a neutral red colorimetric test (Borenfreund E. and al. (1984), Toxicol. Lett., vol.24, pp.119). Cell growth variation is then obtained by measuring optical density (OD) at 540 nm, following the specific equation: […]

Row | SMILES | ATP quantity (cultured fibroblasts) | % stimulation ([1]; 0.016% active) [%] | % stimulation ([1]; 0.031% active) [%] | % stimulation ([1]; 0.063% active) [%] | % stimulation ([1]; 0.125% active) [%] | % stimulation ([1]; 0.5% active) [%]
1 | N=C(N)NCCC[C@H](NC(=O)[C@@H](N)CCCNC(N)=O)C(=O)O [purified Cit-Arg, citrullinylarginine] (H-[Cit]-Arg-OH) | 88.62 +/− 8 nM/mg proteins | 2 | 25 | 30 | 32.5 | 36
2 | CC(=O)N[C@@H](CCCNC(N)=O)C(=O)N[C@@H](CCCNC(=N)N)C(=O)O [NAc-Cit-Arg, N-acetyl-L-citrullinyl-L-arginine] (Ac-[Cit]-Arg-OH) | 90.7 +/− 6.5 nM/mg proteins | 5 | 26 | 34 | 40 | 45
